Measured values from paper PMC10006169, “A phase I trial of LXS196, a protein kinase C (PKC) inhibitor, for metastatic uveal melanoma” (British Journal of Cancer, 2023).
Like-named read-outs stand apart in the source and are kept apart here.

Test: Plasma pharmacokinetics (LC-MS/MS)
Type: in vivo, human
Conditions: human, plasma, oral; for Tmax: read-out: Tmax, Median (Min, max)
Method: In the dose escalation part of the study, PK samples were collected at various pre- and post-dose time points on C1D1, D2, D3, D15 and D16. Drug concentrations were assessed using a validated liquid chromatography-tandem mass spectrometry assay.

CC1(N)CCN(c2cccnc2NC(=O)c2nc(-c3ncccc3C(F)(F)F)cnc2N)CC1 [LXS196]
AUC(0-t) (300 mg, C1D1, 300 mg BID, n=17, read-out: AUC0-t, Geo-mean): 18700 ng·h/mL
AUC(0-t) (300 mg, C1D1, 300 mg BID, n=17, read-out: AUC0-t, Mean (SD)): 20500 ng·h/mL
AUC(0-t) (300 mg, C1D1, 300 mg BID, n=17, read-out: AUC0-t, Median (Min, max)): 17000 ng·h/mL
Cmax (300 mg, C1D1, 300 mg BID, n=17, read-out: Cmax, Geo-mean): 3850 ng/mL
Cmax (300 mg, C1D1, 300 mg BID, n=17, read-out: Cmax, Mean (SD)): 4100 ng/mL
Cmax (300 mg, C1D1, 300 mg BID, n=17, read-out: Cmax, Median (Min, max)): 4210 ng/mL
Tmax (300 mg, C1D1, 300 mg BID, n=17): 1 h
AUC(0-t) (300 mg, C1D1, 300 mg QD, n=15, read-out: AUC0-t, Geo-mean): 34000 ng·h/mL
AUC(0-t) (300 mg, C1D1, 300 mg QD, n=15, read-out: AUC0-t, Mean (SD)): 40200 ng·h/mL
AUC(0-t) (300 mg, C1D1, 300 mg QD, n=15, read-out: AUC0-t, Median (Min, max)): 34400 ng·h/mL
AUC(0-inf) (300 mg, C1D1, 300 mg QD, n=15, read-out: AUCinf, Geo-mean): 42100 ng·h/mL
AUC(0-inf) (300 mg, C1D1, 300 mg QD, n=15, read-out: AUCinf, Mean (SD)): 51300 ng·h/mL
AUC(0-inf) (300 mg, C1D1, 300 mg QD, n=15, read-out: AUCinf, Median (Min, max)): 43100 ng·h/mL
Cmax (300 mg, C1D1, 300 mg QD, n=15, read-out: Cmax, Geo-mean): 4940 ng/mL
Cmax (300 mg, C1D1, 300 mg QD, n=15, read-out: Cmax, Mean (SD)): 5580 ng/mL
Cmax (300 mg, C1D1, 300 mg QD, n=15, read-out: Cmax, Median (Min, max)): 5370 ng/mL
half-life (300 mg, C1D1, 300 mg QD, n=15, read-out: T1/2, Geo-mean (converted)): 642 min
half-life (300 mg, C1D1, 300 mg QD, n=15, read-out: T1/2, Mean (SD) (converted)): 648 min
half-life (300 mg, C1D1, 300 mg QD, n=15, read-out: T1/2, Median (Min, max) (converted)): 666 min
Tmax (300 mg, C1D1, 300 mg QD, n=15): 1 h
AUC(0-t) (300 mg, C1D15, 300 mg BID, n=12, read-out: AUC0-t, Geo-mean): 18300 ng·h/mL
AUC(0-t) (300 mg, C1D15, 300 mg BID, n=12, read-out: AUC0-t, Mean (SD)): 19100 ng·h/mL
AUC(0-t) (300 mg, C1D15, 300 mg BID, n=12, read-out: AUC0-t, Median (Min, max)): 17400 ng·h/mL
Cmax (300 mg, C1D15, 300 mg BID, n=17, read-out: Cmax, Geo-mean): 2800 ng/mL
Cmax (300 mg, C1D15, 300 mg BID, n=17, read-out: Cmax, Mean (SD)): 2860 ng/mL
Cmax (300 mg, C1D15, 300 mg BID, n=17, read-out: Cmax, Median (Min, max)): 2880 ng/mL
Tmax (300 mg, C1D15, 300 mg BID, n=17): 0.567 h
AUC(0-t) (300 mg, C1D15, 300 mg QD, n=13, read-out: AUC0-t, Geo-mean): 26500 ng·h/mL
AUC(0-t) (300 mg, C1D15, 300 mg QD, n=13, read-out: AUC0-t, Mean (SD)): 30500 ng·h/mL
AUC(0-t) (300 mg, C1D15, 300 mg QD, n=13, read-out: AUC0-t, Median (Min, max)): 27900 ng·h/mL
Cmax (300 mg, C1D15, 300 mg QD, n=14, read-out: Cmax, Geo-mean): 3500 ng/mL
Cmax (300 mg, C1D15, 300 mg QD, n=14, read-out: Cmax, Mean (SD)): 3860 ng/mL
Cmax (300 mg, C1D15, 300 mg QD, n=14, read-out: Cmax, Median (Min, max)): 3310 ng/mL
concentration at 15 day (300 mg, C1D15, 300 mg QD, n=14, read-out: Cmin, Median (Min, max)): 326 ng/mL
Tmax (300 mg, C1D15, 300 mg QD, n=14): 1 h
AUC(0-t) (400 mg, C1D1, 400 mg BID, n=5, read-out: AUC0-t, Geo-mean): 16800 ng·h/mL
AUC(0-t) (400 mg, C1D1, 400 mg BID, n=5, read-out: AUC0-t, Mean (SD)): 18100 ng·h/mL
AUC(0-t) (400 mg, C1D1, 400 mg BID, n=5, read-out: AUC0-t, Median (Min, max)): 18200 ng·h/mL
AUC(0-inf) (400 mg, C1D1, 400 mg BID, n=5, read-out: AUCinf, Geo-mean): 28400 ng·h/mL
AUC(0-inf) (400 mg, C1D1, 400 mg BID, n=5, read-out: AUCinf, Mean (SD)): 30400 ng·h/mL
AUC(0-inf) (400 mg, C1D1, 400 mg BID, n=5, read-out: AUCinf, Median (Min, max)): 31700 ng·h/mL
Cmax (400 mg, C1D1, 400 mg BID, n=5, read-out: Cmax, Geo-mean): 3730 ng/mL
Cmax (400 mg, C1D1, 400 mg BID, n=5, read-out: Cmax, Mean (SD)): 4350 ng/mL
Cmax (400 mg, C1D1, 400 mg BID, n=5, read-out: Cmax, Median (Min, max)): 3850 ng/mL
half-life (400 mg, C1D1, 400 mg BID, n=5, read-out: T1/2, Geo-mean (converted)): 810 min
half-life (400 mg, C1D1, 400 mg BID, n=5, read-out: T1/2, Mean (SD) (converted)): 828 min
half-life (400 mg, C1D1, 400 mg BID, n=5, read-out: T1/2, Median (Min, max) (converted)): 870 min
Tmax (400 mg, C1D1, 400 mg BID, n=5): 1.03 h
AUC(0-t) (400 mg, C1D15, 400 mg BID, n=4, read-out: AUC0-t, Geo-mean): 15700 ng·h/mL
AUC(0-t) (400 mg, C1D15, 400 mg BID, n=4, read-out: AUC0-t, Mean (SD)): 15900 ng·h/mL
AUC(0-t) (400 mg, C1D15, 400 mg BID, n=4, read-out: AUC0-t, Median (Min, max)): 16000 ng·h/mL
Cmax (400 mg, C1D15, 400 mg BID, n=4, read-out: Cmax, Geo-mean): 2070 ng/mL
Cmax (400 mg, C1D15, 400 mg BID, n=4, read-out: Cmax, Mean (SD)): 2100 ng/mL
Cmax (400 mg, C1D15, 400 mg BID, n=4, read-out: Cmax, Median (Min, max)): 2060 ng/mL
Tmax (400 mg, C1D15, 400 mg BID, n=4): 0.842 h
AUC(0-t) (500 mg, C1D1, 500 mg QD, n=10, read-out: AUC0-t, Geo-mean): 48000 ng·h/mL
AUC(0-t) (500 mg, C1D1, 500 mg QD, n=10, read-out: AUC0-t, Mean (SD)): 50700 ng·h/mL
